Results as given in patent US12122804B2, “γ-aminobutyric acid modulator crystal form X, preparation method and application thereof” (SHENZHEN RENTAI […]., priority 2019, dated 2024).

Key:
[1] = Accelerated stability of the crystal form (XRPD comparison); assay type: physicochemical; conditions: 75% RH, 40° C., 5 days and 10 days, FIG. 15
Procedure: (§1) The crystal form X prepared in Example 5 is tested as follows.
(3) Accelerated stability: the test sample is placed in an environment having a humidity of 75% RH and a temperature of 40° C. for 5 days and 10 days, respectively, to test the stability of the crystal form.

[2] = High-temperature stability of the crystal form (XRPD comparison); assay type: physicochemical; conditions: 60° C., 5 days and 10 days, FIG. 14
Procedure: as §1
(2) High-temperature stability: the test sample is placed at a temperature of 60° C. for 5 days and 10 days, respectively, to test the stability of the crystal form.

[3] = Light stability of the crystal form (XRPD comparison); assay type: physicochemical; conditions: 25° C., 4500 Lux, 5 days and 10 days, FIG. 13
Procedure: as §1
(1) Light stability: the test sample is placed in an environment having a temperature of 25° C. and a light condition of 4500 Lux for 5 days and 10 days, respectively, to test the stability of the crystal form.

[4] = High-humidity stability of the crystal form (XRPD comparison); assay type: physicochemical; conditions: 92.5% RH, 25° C., 5 days and 10 days, FIG. 16
Procedure: as §1
(4) High-humidity stability: the test sample is placed in an environment having a humidity of 92.5% RH and a temperature of 25° C. for 5 days and 10 days, respectively, to test the stability of the crystal form.

[5] = Comparison of crystal form X with crystal form K (XRPD, FIG. 17; stability); assay type: physicochemical
[6] = assessment of data of WO2018039378A1: crystal transformation, XRPD at different temperatures; cited from earlier work

| Structure (SMILES) | Accelerated stability of the crystal form [1] | High-temperature stability of the crystal form [2] | Light stability of the crystal form [3] | High-humidity stability of the crystal form [4] | Stability relative to crystal form K [5] | Crystal form stability (suitability as medicinal crystal form) [6] |
| --- | --- | --- | --- | --- | --- | --- |
| C[C@@]1(O)CC[C@H]2[C@H](CC[C@@H]3[C@@H]2CC[C@]2(C)[C@@H](C(=O)Cn4cc(C#N)cn4)CC[C@@H]32)C1 [crystal form X, 3α-hydroxy-3β-methyl-21-(4-cyano-1H-pyrazol-1′-yl)-19-nor-5β-pregnan-20-one] | good accelerated stability | good high-temperature stability | good light stability | good high-humidity stability | better stability than the crystal form K | – |
| C[C@@]1(O)CC[C@H]2[C@H](CC[C@@H]3[C@@H]2CC[C@]2(C)[C@@H](C(=O)Cn4cc(C#N)cn4)CC[C@@H]32)C1 [crystal form A, 3α-hydroxy-3β-methyl-21-(4-cyano-1H-pyrazol-1′-yl)-19-nor-5β-pregnan-20-one] | – | – | – | – | – | unstable |
